Molecules are shown by their SMILES. Structures can show the parent of a compound that is named as a salt.

The first test concerns Acinetobacter baumannii ATCC17978. Briefly: Antimicrobial susceptibility testing: 90% growth inhibitory concentration (IC90) determination. It counts as cell-based. The note with it: 90% growth inhibitory concentration, Acinetobacter baumannii ATCC17978, Iso-Sensitest broth, OD 600 nm over 16 h; formate salt; read-out: ATCC17978 IC90. As to the method: The in vitro antimicrobial activity of the compounds was determined according to the following procedure:
The assay used a 10-points Iso-Sensitest broth medium to measure quantitatively the in vitro activity of the compounds against Acinetobacter baumannii ATCC17978 and Acinetobacter baumannii ATCC17961.
Stock compounds in DMSO were serially twofold diluted (e.g. range from 50 to 0.097 μM final concentration) in 384 wells microtiter plates and inoculated with 49 μl the bacterial suspension in Iso-Sensitest medium to have a final cell concentration of ˜5×10^(5) CFU/ml in a final volume/well of 50 ul/well. Microtiter plates were incubated at 35±2° C.
Bacterial cell growth was determined with the measurement of optical density at λ=600 nm each 20 minutes over a time course of 16 h. Growth inhibition was calculated during the logarithmic growth of the bacterial cells with determination of the concentration inhibiting 50% (IC50) and 90% (IC90) of the growth.
Table 1 provides the 90% growth inhibitory concentrations (IC90) in micromoles per liter of the compounds of present invention obtained against the strain Acinetobacter baumannii ATCC17978 and Acinetobacter baumannii ATCC17961.
What is called IC90 is the point of the concentration-response curve where the effect stands at 90%. With `COc1ccc(-c2cnc3c(Nc4ccc(C(=O)N5CCC(C(=O)N6CCNC(C(=O)O)C6)CC5)c(Cl)c4)nccn23)cc1F` (centres unmarked) [Example 2, 4-(1-(2-chloro-4-((3-(3-fluoro-4-methoxyphenyl)imidazo [1,2-a]pyrazin-8-yl)amino)benzoyl)piperidine-4-carbonyl) piperazine-2-carboxylic acid, formate salt], the IC90 was 470 nM.

Staying with this test, now noted: 90% growth inhibitory concentration, Acinetobacter baumannii ATCC17978, Iso-Sensitest broth, OD 600 nm over 16 h; hydrochloride; read-out: ATCC17978 IC90.
`COc1ccc(-c2cnc3c(Nc4ccc(C(=O)N5CCC(C(=O)NCC6CNC6)CC5)c(Cl)c4)nccn23)cc1F` [Example 54, N-(azetidin-3-ylmethyl)-1-[2-chloro-4-[[3-(3-fluoro-4-methoxyphenyl)imidazo[1,2-a]pyrazin-8-yl]amino]benzoyl]piperidine-4-carboxamide;hydrochloride]: the 90% effect concentration (IC90) worked out at 130 nM.

Still in this test, the particulars now being: 90% growth inhibitory concentration, Acinetobacter baumannii ATCC17978, Iso-Sensitest broth, OD 600 nm over 16 h; read-out: ATCC17978 IC90.
As for `N#CCOc1ccc(-c2cnc3c(Nc4ccc(C(=O)N5CCC(C(=O)OCC6CNCCN6)CC5)c(Cl)c4)nccn23)c(F)c1F` (centres unmarked) [Example 83, piperazin-2-ylmethyl 1-[2-chloro-4-[[3-[4-(cyanomethoxy)-2,3-difluorophenyl]imidazo[1,2-a]pyrazin-8-yl]amino]benzoyl]piperidine-4-carboxylate;2,2,2-trifluoroacetic acid], the IC90 came to 140 nM.
On to `COc1ccc(-c2cnc3c(Nc4ccc(C(=O)N5CCC(C(=O)N6CCNC(C(=O)O)C6)CC5)c(Cl)c4)nccn23)cc1F` (centres unmarked) [Example 59, 4-[1-[2-chloro-4-[[3-(3-fluoro-4-methoxyphenyl)imidazo[1,2-a]pyrazin-8-yl]amino]benzoyl]piperidine-4-carbonyl]piperazine-2-carboxylic acid], for which the IC90 was 1200 nM.
For the molecule `COc1ccc(-c2cnc3c(Nc4ccc(C(=O)N5CCN(CCN(C)C)CC5)c(Cl)c4)nccn23)cc1F` [Example 3, (2-Chloro-4-((3-(3-fluoro-4-methoxyphenyl)imidazo[1,2-a]pyrazin-8-yl)amino)phenyl)(4-(2-(dimethylamino)ethyl)piperazin-1-yl)methanone], the IC90 is 120 nM.

Staying with this test, now noted: Acinetobacter baumannii, ATCC17978, 16 h, 90% growth inhibitory concentration, Acinetobacter baumannii ATCC17978, Iso-Sensitest broth, OD 600 nm over 16 h; read-out: ATCC17978 IC90.
Turning to `N#CCOc1ccc(-c2cnc3c(Nc4ccc(C(=O)N5CCN(CCN6CCCC6)CC5)c(Cl)c4)nccn23)c(Cl)c1F` [Example 26], the IC90 was 86 nM.
The same measure, in the same setting: under `N#CCOc1ccc(-c2cnc3c(Nc4ccc(C(=O)N5CCC(c6ccncc6)CC5)c(Cl)c4)nccn23)c(F)c1F` [Example 21, 2-[4-[8-[3-chloro-4-[4-(4-pyridyl)piperidine-1-carbonyl]anilino]imidazo[1,2-a]pyrazin-3-yl]-2,3-difluoro-phenoxy]acetonitrile] stands 870 nM; under `COc1ccc(-c2cnc3c(Nc4ccc(C(=O)N5CCOCC5)cc4)nccn23)cc1Cl` [Example 38, (4-((3-(3-chloro-4-methoxyphenyl)imidazo[1,2-a]pyrazin-8-yl)amino)phenyl)(morpholino)methanone], 570 nM; under `CNCC(=O)N1CCN(C(=O)c2ccc(Nc3nccn4c(-c5ccc(OCC#N)c(F)c5F)cnc34)cc2Cl)CC1` [Example 77, 2-[4-[8-[3-chloro-4-[4-[2-(methylamino)acetyl]piperazine-1-carbonyl]anilino]imidazo[1,2-a]pyrazin-3-yl]-2,3-difluorophenoxy]acetonitrile], 73 nM.
Still for that read-out and setting: under `N#CCOc1ccc(-c2cnc3c(Nc4ccc(C(=O)N5CCN(C(=O)N6CCN[C@@H](CO)C6)CC5)c(Cl)c4)nccn23)c(F)c1F` [Example 36, 2-[4-[8-[3-chloro-4-[4-[(3R)-3-(hydroxymethyl)piperazine-1-carbonyl]piperazine-1-carbonyl]anilino]imidazo[1,2-a]pyrazin-3-yl]-2,3-difluoro-phenoxy]acetonitrile] stands 41 nM.
The same measure, in the same setting: under `COc1ccc(-c2cnc3c(Nc4ccc(C(=O)N5CCN(CCN(C)C)CC5)c(Cl)c4)nccn23)c(Cl)c1F` [Example 68, [2-chloro-4-[[3-(2-chloro-3-fluoro-4-methoxyphenyl)imidazo[1,2-a]pyrazin-8-yl]amino]phenyl]-[4-[2-(dimethylamino)ethyl]piperazin-1-yl]methanone] stands 110 nM; under `COc1ccc(-c2cnc3c(Nc4ccc(C(=O)N5CCN(CCO)CC5)cc4)nccn23)cc1` [Example 63, [4-(2-hydroxyethyl)piperazin-1-yl]-[4-[[3-(4-methoxyphenyl)imidazo[1,2-a]pyrazin-8-yl]amino]phenyl]methanone], 1100 nM; under `CNCCN1CCN(C(=O)c2ccc(Nc3nccn4c(-c5ccc(OCC#N)c(F)c5F)cnc34)cc2Cl)CC1` [Example 91, 2-[4-[8-[3-chloro-4-[4-[2-(methylamino)ethyl]piperazine-1-carbonyl]anilino]imidazo[1,2-a]pyrazin-3-yl]-2,3-difluorophenoxy]acetonitrile; 2,2,2-trifluoroacetic acid], 49 nM.
Regarding `COc1ccc(-c2cnc3c(Nc4ccc(C(=O)N5CCOCC5)cc4)nccn23)cc1` [Example 61, [4-[[3-(4-methoxyphenyl)imidazo[1,2-a]pyrazin-8-yl]amino]phenyl]-morpholin-4-ylmethanone], the IC90 stood at 580 nM.
As for `COc1ccc(-c2cnc3c(Nc4ccc(C(=O)N5CCC(C(=O)N6CCNC(CO)C6)CC5)c(Cl)c4)nccn23)cc1F` (centres unmarked) [Example 70, [2-chloro-4-[[3-(3-fluoro-4-methoxyphenyl)imidazo[1,2-a]pyrazin-8-yl]amino]phenyl]-[4-[3-(hydroxymethyl)piperazine-1-carbonyl]piperidin-1-yl]methanone;hydrochloride], the IC90 was 270 nM.
The same measure, in the same setting: for `CNCCNC(=O)C1CCN(C(=O)c2ccc(Nc3nccn4c(-c5ccc(OCC#N)c(F)c5F)cnc34)cc2Cl)CC1` [Example 32, 1-[2-chloro-4-[[3-[4-(cyanomethoxy)-2,3-difluoro-phenyl]imidazo[1,2-a]pyrazin-8-yl]amino]benzoyl]-N-[2-(methylamino)ethyl]piperidine-4-carboxamide trifluoroacetate] the value was 300 nM.
Still for that read-out and setting: under `N#CCOc1ccc(-c2cnc3c(Nc4ccc(C(=O)N5CCC(C(=O)N6CCNCC6CO)CC5)c(Cl)c4)nccn23)c(F)c1F` (centres unmarked) [Example 30, 2-[4-[8-[3-chloro-4-[4-[2-(hydroxymethyl)piperazine-1-carbonyl]piperidine-1-carbonyl]anilino]imidazo[1,2-a]pyrazin-3-yl]-2,3-difluoro-phenoxy]acetonitrile trifluoroacetate] stands 190 nM.

Staying with this test, now noted: Acinetobacter baumannii, ATCC17978, 16 h, read-out: ATCC17978 IC90.
On to `CN(C)C1CCN(CCN2CCN(C(=O)c3ccc(Nc4nccn5c(-c6ccc(OCC#N)c(F)c6F)cnc45)cc3Cl)CC2)C1` (centres unmarked) [Example 100, 2-[4-[8-[3-chloro-4-[4-[2-[3-(dimethylamino)pyrrolidin-1-yl]ethyl]piperazine-1-carbonyl]anilino]imidazo[1,2-a]pyrazin-3-yl]-2,3-difluorophenoxy]acetonitrile; 2,2,2-trifluoroacetic acid], for which the IC90 amounted to 170 nM.
On the same count and under the same terms, for `N#CCOc1ccc(-c2cnc3c(Nc4ccc(C(=O)N5CCC(C(=O)N6CCN[C@H](C(=O)O)C6)CC5)c(Cl)c4)nccn23)c(F)c1F` [Example 45, (2S)-4-[1-[2-chloro-4-[[3-[4-(cyanomethoxy)-2,3-difluoro-phenyl]imidazo[1,2-a]pyrazin-8-yl]amino]benzoyl]piperidine-4-carbonyl]piperazine-2-carboxylic Acid; Formic Acid] the value was 880 nM.
Still for that read-out and setting: for `CN(C)CC(=O)N1CCN(C(=O)c2ccc(Nc3nccn4c(-c5ccc(OCC#N)c(F)c5F)cnc34)cc2Cl)CC1` [Example 14, 2-[4-[8-[3-chloro-4-[4-[2-(dimethylamino)acetyl]piperazine-1-carbonyl]anilino]imidazo[1,2-a]pyrazin-3-yl]-2,3-difluoro-phenoxy]acetonitrile; 2,2,2-trifluoroacetic acid] the value was 28 nM; for `N#CCOc1ccc(-c2cnc3c(Nc4ccc(C(=O)N5CCN(CCN6CC(CO)C6)CC5)c(Cl)c4)nccn23)c(F)c1F` [Example 92, 2-[4-[8-[3-chloro-4-[4-[2-[3-(hydroxymethyl)azetidin-1-yl]ethyl]piperazine-1-carbonyl]anilino]imidazo[1,2-a]pyrazin-3-yl]-2,3-difluorophenoxy]acetonitrile; 2,2,2-trifluoroacetic acid], 50 nM.
Same read-out and setting: for `CC(C#N)Oc1ccc(-c2cnc3c(Nc4ccc(C(=O)N5CCN(CCCN(C)C)CC5)c(Cl)c4)nccn23)c(F)c1F` (centres unmarked) [Example 42, 2-[4-[8-[3-chloro-4-[4-[3-(dimethylamino)pro-pyl]piperazine-1-carbonyl]anilino]imi-dazo[1,2-a]pyrazin-3-yl]-2,3-difluoro-phenoxy]propanenitrile] the value was 200 nM; for `CS(=O)(=O)C1CCN(CCN2CCN(C(=O)c3ccc(Nc4nccn5c(-c6ccc(OCC#N)c(F)c6F)cnc45)cc3Cl)CC2)C1` (centres unmarked) [Example 103, 2-[4-[8-[3-chloro-4-[4-[2-(3-methylsulfonylpyrrolidin-1-yl)ethyl]piperazine-1-carbonyl]anilino]imidazo[1,2-a]pyrazin-3-yl]-2,3-difluorophenoxy]acetonitrile; 2,2,2-trifluoroacetic acid], 180 nM.
